Assay results from patent publication US8791258B2, “Pro-fluorescent probes” (The Regents of the University of California, priority 2008, dated 2014).
Blank lines part the entries; values can stand above or below the compound they belong to.

Experiments:
[1] = Fluorescence response to various ROS (H2O2 selectivity); conditions: 100 μM ROS, 20 mM HEPES, pH 7, 25° C.
Method: (§1) FIG. 7 is the fluorescence response of 5 μM PF1 to various ROS (10 mM O2^−, 100 μM for all other ROS). .OH and .Ot-Bu were generated by reaction of Fe^2+ with H2O2 or tert-butyl hydroperoxide (TBHP), respectively. NO was delivered using S-nitrosocysteine (SNOC). Spectra were acquired in 20 mM HEPES, pH 7, and all data were obtained after incubation with the appropriate ROS at 25° C. for 1 h. Collected emission was integrated between 460 and 700 nm (λexc=450 nm).
FIG. 8 is the fluorescence response of 5 μM PR1 to various ROS (10 mM O2^−, 100 μM for all other ROS). .OH and .O^tBu were generated by reaction of Fe^2+ with H2O2 or tert-butyl hydroperoxide (TBHP), respectively. NO was delivered using S-nitrosocysteine (SNOC). Spectra were acquired in 20 mM HEPES, pH 7, and all data were obtained after incubation with the appropriate ROS at 25° C. for 30 min. Collected emission was integrated between 570 and 800 nm (λexc=560 nm).
as §1, with “FIG. 9” for “FIG. 7”, “of 10” for “of 5”, “μM PX1” for “μM PF1”, “between 370” for “between 460”, “and 600” for “and 700”, “nm (λexc=350” for “nm (λexc=450”
(§2) Millipore water was used to prepare all aqueous solutions. All spectroscopic measurements were performed in 20 mM HEPES buffer, pH 7. Absorption spectra were recorded using a Varian Cary 50 spectrophotometer (Walnut Creek, Calif.). Fluorescence spectra were recorded using a Photon Technology International Quanta Master 4 L-format scanning spectrofluorometer (Lawrenceville, N.J.) equipped with an LPS-220B 75-W xenon lamp and power supply, A-1010B lamp housing with integrated igniter, switchable 814 photon-counting/analog photomultiplier detection unit, and MD5020 motor driver. Samples for absorption and fluorescence measurements were contained in 1-cm×1-cm quartz cuvettes (1.4- or 3.5-mL volume, Starna, Atascadero, Calif.).
FIG. 7, FIG. 8 and FIG. 9 compare the relative reactivities of boronate-based PF1, PR1, and PX1, respectively, toward various ROS.

[2] = tested on: HEK cells; test: Confocal and two-photon fluorescence imaging of H2O2 in live HEK cells; conditions: for intracellular background fluorescence of probe-loaded cells before H2O2: 5-10 μM probe, 2-10 min at 25° C.; for intracellular fluorescence after addition of H2O2: probe-loaded cells, 10-100 μM H2O2
Method: (a) Fluorescence image of HEK cells incubated with 5 μM PF1 for 5 min at 25° C. (b) Fluorescence image of PF1-stained HEK cells treated with 100 μM H2O2 for 11 min at 25° C. Excitation was provided at 488 nm, and emission was collected in a window from 505 to 580 nm. Scale bar=27 μm.
(a) Fluorescence image of HEK cells incubated with 10 μM PR1 for 10 min at 25° C. (b) Fluorescence image of PR1-stained HEK cells treated with 100 μM H2O2 for 30 min at 25° C. Excitation was provided at 543 nm, and emission was collected in a window from 548 to 644 nm. Scale bar=18 μm.
(a) Fluorescence image of HEK cells incubated with 10 μM PX1 for 2-3 min at 25° C. (b) Fluorescence image of PX1-stained HEK cells treated with 100 μM H2O2 for 30 min at 25° C. Two-photon excitation was provided at 704 nm, and emission was collected in a window from 420 to 500 nm. Scale bar=18 μm.
HEK 293T cells were cultured in Dulbecco's Modified Eagle Medium (DMEM, Invitrogen, Carlsbad, Calif.) supplemented with 10% Fetal Bovine Serum (FBS, Invitrogen), glutamine (2 mM), and penicillin/streptomycin (50 μg/ml, Invitrogen). One day before imaging, cells were passed and plated on 18-mm glass coverslips coated with poly-L-lysine (50 μg/ml, Sigma, St. Louis, Mo.). Immediately before the experiments, cells were washed with PBS buffer, incubated with the probe in PBS, and imaged.
Confocal fluorescence imaging was performed with a Zeiss LSM510 META laser scanning microscope containing an Axioplan 2 MOT upright microscope and a 40× water-immersion objective lens. Excitation of PF1-loaded cells at 488 nm was carried out with an argon ion laser, and emission was Collected in a window from 505 nm to 580 nm using a META detection system. Excitation of PR1-loaded cells at 543 nm was carried out with a HeNe laser, and emission was collected in a window from 548 nm to 644 nm using a META detector. PF1 or PR1 were incubated with live cell samples for 5 to 10 min. Addition of H2O2 (10 to 100 μM) to cell samples was performed directly on the microscope stage by bath application to the media.
Two-photon fluorescence imaging of PX1 was carried out using an inverted Zeiss LSM510 Axiovert 200M microscope with a NeoFLUAR 40×/1.3 NA oil-immersion objective lens. Samples were excited by 704-nm pulses from a mode-locked Ti:Sapphire laser (Tsunami, SpectraPhysics, 120-150 fs pulse width, 80 MHz repetition rate). The emission light was filtered with a 80-nm wide bandpass filter centered at 460 nm (460BP40, Chroma) and detected with the non-descanned detector (NDD) of the LSM510.

[3] = tested on: embryonic rat hippocampal neurons (E18); test: Fluorescence imaging of H2O2 in cultured hippocampal neurons; type: cell-based
Method: Hippocampal primary cultures were prepared from embryonic day 18 (E18) rat embryos according to a previously reported protocol. Briefly, hippocampi were dissociated by treatment with trypsin for 20 min at 37° C. followed by washing. The neuronal cells were plated on glass coverslips (Carolina Biological, Burlington, N.C.) coated with poly-L-lysine ([…], Sigma) and cultured in neurobasal medium supplemented with 2 mM Glutamax and 2% B-27 (Invitrogen). After 10 days in vitro, the cultures were washed with PBS, incubated with the probe in PBS, and imaged.
Finally, the successful use of the Peroxysensor probes for monitoring changes in intracellular H2O2 concentrations in mammalian cell lines using either confocal or two-photon microscopy led us to evaluate their utility in primary culture systems. […] Control neurons without PF1 and/or H2O2 treatment show no detectable fluorescence enhancements. These experiments confirm that PF1 can be used in living neurons to detect oxidative stress events.

[4] = Absorption and emission properties, fluorescence quantum yield; type: physicochemical; conditions: absorption maximum 350 nm; 20 mM HEPES, pH 7
Method: as §2
as §2, with “recorded on” for “recorded using”, “Creek, Calif.) and fluorescence” for “Creek, Calif.). Fluorescence”, “and emission” for “and fluorescence”, “cuvettes (1.5-mL” for “cuvettes (1.4- or 3.5-mL”, “Calif.). Fluorescence quantum yields were determined by reference to fluorescein in 0.1M NaOH (Φ=0.95).” for “Calif.).”

[5] = Fluorescence response to H2O2 in 20 mM HEPES, pH 7
Method: as §2
The Peroxysensor reagents were evaluated under simulated physiological conditions (20 mM HEPES buffer, pH 7). […] FIG. 4, FIG. 5 and FIG. 6 show the fluorescence responses of PF1, PR1, and PX1, respectively, to H2O2.

membrane permeability / cell entry [2]: can passively enter live cells
SMILES: CC1(C)OB(c2ccc3c(c2)Oc2cc(B4OC(C)(C)C(C)(C)O4)ccc2C32OC(=O)c3ccccc32)OC1(C)C [PF1, 3′,6″-Bis(pinacolatoboron)fluoran]
higher response for H2O2 over .OH ([1]; .OH from Fe2+ with H2O2): > 3 fold
higher response for H2O2 over .OtBu ([1]; .OtBu from Fe2+ with TBHP): > 15 fold
cell viability during imaging [2]: cells are viable throughout the imaging experiments
intracellular background fluorescence of probe-loaded cells before H2O2 [2]: negligible intracellular background fluorescence
intracellular fluorescence after addition of H2O2 [2]: prompt increases in intracellular green fluorescence
background fluorescence of probe-loaded neurons ([3]; 10 μM probe, 5 min at 25° C.): negligible background fluorescence
intracellular fluorescence under simulated oxidative stress ([3]; 300 μM H2O2 for 30 min at 25° C.): notable increases in intracellular fluorescence

SMILES: CC1(C)OB(c2ccc3c(=O)c4ccc(B5OC(C)(C)C(C)(C)O5)cc4oc3c2)OC1(C)C [PX1, 3,6-Bis(pinacolatoboron)xanthone]
higher response for H2O2 over NO ([1]; NO delivered using SNOC): ca. 6 fold
higher response for H2O2 over tert-butyl hydroperoxide (TBHP) [1]: > 100 fold
intracellular background fluorescence of probe-loaded cells before H2O2 [2]: minimal intracellular background fluorescence
intracellular fluorescence after addition of H2O2 [2]: Prompt increases in intracellular blue fluorescence
extinction coefficient ε at 350 nm [4]: 4700 M⁻¹ cm⁻¹
increase in integrated fluorescence intensity / integrated emission on reaction with H2O2 (dynamic range) [5]: 52 fold
